Assay [1] addresses T1, Indoleamine 2,3-dioxygenase 1 (Homo sapiens, UniProt P14902). Briefly: Inhibition of IDO1 in IFNgamma-stimulated human HeLa cells assessed as reduction in kynurenine formation using L-tryptophan as substrate by absorbance based analysis.
For assay [2], the target named is T1, Indoleamine 2,3-dioxygenase 1. Description: Inhibition of IDO1 (unknown origin) assessed as reduction in kynurenine formation using L-tryptophan as substrate by absorbance based analysis.

T1 sequence (P14902 whole entry): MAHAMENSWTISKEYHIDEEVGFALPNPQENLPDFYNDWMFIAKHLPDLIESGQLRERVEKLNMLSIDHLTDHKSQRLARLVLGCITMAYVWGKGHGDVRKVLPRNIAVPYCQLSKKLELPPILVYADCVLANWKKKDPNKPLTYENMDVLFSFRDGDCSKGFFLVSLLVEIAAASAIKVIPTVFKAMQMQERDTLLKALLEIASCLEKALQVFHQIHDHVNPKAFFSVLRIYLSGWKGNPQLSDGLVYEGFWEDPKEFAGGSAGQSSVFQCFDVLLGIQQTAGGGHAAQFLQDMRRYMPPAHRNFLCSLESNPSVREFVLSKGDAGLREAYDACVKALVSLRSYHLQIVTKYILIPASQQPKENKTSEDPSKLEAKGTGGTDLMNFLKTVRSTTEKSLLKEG

For `O/N=C(/Nc1cccc(COc2ccccc2)c1)c1ccc2occc2c1`, the IC50 in assay [1] and in assay [2] was above 30 µM each time.
Regarding `O=C(NCC1CCCCC1)c1cccc(N/C(=N/O)c2ccc3occc3c2)c1`, the IC50 in assay [1] and in assay [2] was above 30 µM throughout.
Regarding `O=C(NCc1ccccc1)c1cccc(N/C(=N/O)c2ccc3occc3c2)c1`, the IC50 in assay [1] and in assay [2] was above 30 µM each time.
Turning to `COc1cc(N/C(=N/O)c2ccc3oc4ccccc4c3c2)cc(OC)c1`, the IC50 in assay [1] and in assay [2] was above 30 µM each time.
As for `O/N=C(/Nc1cccc(Br)c1)c1ccc2oc3ccccc3c2c1`, the IC50 (in general, the concentration at which inhibition is half-maximal) in assay [1] stood at 10.8 µM; in assay [2], 1.3 µM.
On to `O/N=C(/NCc1cccc(Cl)c1)c1ccc2oc3ccccc3c2c1`, for which the IC50 in assay [1] was 29.6 µM; in assay [2], 3.6 µM.
With `O/N=C(/Nc1cccc(F)c1)c1ccc2oc(COCC3CC3)cc2c1`, the IC50 in assay [1] is 8 µM; in assay [2] it was 2.2 µM.
Regarding `O/N=C(/Nc1cccc(C(F)(F)F)c1)c1ccc2occc2c1`, the IC50 in assay [1] is 1.9 µM; in assay [2] it was 1.2 µM.
The matching figures for `CCCCOc1cccc(N/C(=N/O)c2ccc3occc3c2)c1`: above 30 µM and above 30 µM.
On to `O/N=C(/NCc1cccs1)c1ccc2occc2c1`, for which the IC50 was 16.2 µM in assay [1] and above 30 µM in assay [2].
The matching figures for `O/N=C(/Nc1cccc(Cl)c1)c1ccc2oc3ccccc3c2c1`: 7.6 µM and 1.8 µM.
With `COCc1cc2cc(/C(=N\O)Nc3cccc(F)c3)ccc2o1`, the IC50 was found to be 6.1 µM in assay [1] and 7.1 µM in assay [2].
The matching figures for `O/N=C(/Nc1cccc(F)c1)c1ccc2oc(-c3ccccc3)cc2c1`: 10.6 µM and 11 µM.
The matching figures for `CC(=O)c1cccc(N/C(=N/O)c2ccc3occc3c2)c1`: above 30 µM and above 30 µM.
Take `COCc1cc2cc(/C(=N\O)Nc3cccc(Br)c3)ccc2o1`: the IC50 in assay [1] is 2.5 µM; in assay [2] it was 0.93 µM.
As for `O/N=C(/Nc1cccc(Br)c1)c1ccc2occc2c1`, the figures for the IC50 in assay [1] and in assay [2] were 1.1 µM and 0.44 µM, respectively.
For `OCc1cc2cc(/C(=N\O)Nc3cccc(Br)c3)ccc2o1`, the values for the half-inhibitory concentration (IC50) in assay [1] and in assay [2] were 1.2 µM and 0.71 µM, respectively.
Consider `O/N=C(/Nc1cccc(-c2ccccc2)c1)c1ccc2occc2c1`, for which the IC50 in assay [1] worked out at 11.9 µM; in assay [2], 11 µM.
As for `O/N=C(/Nc1cccc(Cl)c1)c1ccc2oc(-c3ccccc3)cc2c1`, the half-inhibitory concentration (IC50) in assay [1] came to 10.8 µM; in assay [2], 0.9 µM.
The matching figures for `O/N=C(/Nc1ccc(F)c(Br)c1)c1ccc2oc3ccccc3c2c1`: 16.2 µM and 2.4 µM.
As to `O/N=C(/Nc1ccc(F)c(Cl)c1)c1ccc2oc3ccccc3c2c1`, the IC50 in assay [1] was 22.8 µM; in assay [2] it was 9.6 µM.
The matching figures for `O/N=C(/Nc1ccc(F)c(F)c1)c1ccc2occc2c1`: 14 µM and 22.7 µM.
The matching figures for `O/N=C(/Nc1ccccc1)c1ccc2occc2c1`: 19 µM and above 30 µM.
The matching figures for `O/N=C(/NCc1cccc(Cl)c1)c1ccc2occc2c1`: 5.8 µM and above 30 µM.
For `OCc1cc2cc(/C(=N\O)Nc3cccc(F)c3)ccc2o1`, the IC50 in assay [1] amounted to 2.4 µM; in assay [2], 1.7 µM.
Regarding `O/N=C(/Nc1cccc(Br)c1)c1ccc2oc(COCC3CC3)cc2c1`, the results for the IC50 in assay [1] and in assay [2] were 3.2 µM and 0.4 µM, respectively.
The matching figures for `O/N=C(/NCc1ccco1)c1ccc2occc2c1`: above 30 µM and above 30 µM.
The matching figures for `O/N=C(/Nc1ccc(F)c(Br)c1)c1ccc2occc2c1`: 2.6 µM and 1.6 µM.
The matching figures for `COCc1cc2cc(/C(=N\O)Nc3cccc(Cl)c3)ccc2o1`: 2.2 µM and 1 µM.
Consider `OCc1cc2cc(/C(=N\O)Nc3cccc(Cl)c3)ccc2o1`, for which the IC50 in assay [1] is 5.9 µM; in assay [2] it was 8 µM.
The matching figures for `O/N=C(/Nc1cccc(Br)c1)c1ccc2oc(-c3ccccc3)cc2c1`: 8.6 µM and 0.9 µM.
For the compound `O/N=C(/Nc1cccc(Oc2ccccc2)c1)c1ccc2occc2c1`, the IC50 in assay [1] and in assay [2] was above 30 µM each time.
Regarding `O/N=C(/NCc1ccc(F)c(Cl)c1)c1ccc2occc2c1`, the IC50 in assay [1] was determined as 17.6 µM; in assay [2], 22 µM.
The matching figures for `O/N=C(/NCc1ccccc1)c1ccc2occc2c1`: 28.2 µM and above 30 µM.
With `O/N=C(/Nc1cccc(Cc2ccccc2)c1)c1ccc2occc2c1`, the IC50 in assay [1] and in assay [2] was above 30 µM in each case.
With `O/N=C(/Nc1ccc(Cl)c(F)c1)c1ccc2occc2c1`, the IC50 in assay [1] is 10.3 µM; in assay [2], above 30 µM.
The matching figures for `O/N=C(/NCC1CC1)c1ccc2occc2c1`: above 30 µM and above 30 µM.
The matching figures for `O/N=C(/Nc1ccc(F)c(C(F)(F)F)c1)c1ccc2occc2c1`: 2.2 µM and 1.2 µM.
As to `O/N=C(/Nc1ccc(Cl)cc1)c1ccc2occc2c1`, the IC50 in assay [1] and in assay [2] was above 30 µM in each case.
In the case of `O/N=C(/Nc1ccc(F)c(Cl)c1)c1ccc2occc2c1`, the IC50 in assay [1] turned out to be 1.8 µM; in assay [2], 5.2 µM.
As for `Cc1ccc(N/C(=N/O)c2ccc3occc3c2)cc1C`, the IC50 in assay [1] and in assay [2] was above 30 µM throughout.
In the case of `CC1CCN(C(=O)c2cccc(N/C(=N/O)c3ccc4occc4c3)c2)CC1`, the IC50 in assay [1] and in assay [2] was above 30 µM in each case.
For `O/N=C(/Nc1cccc(F)c1)c1ccc2occc2c1`, the IC50 was found to be 20 µM in assay [1] and 32.7 µM in assay [2].
The matching figures for `O/N=C(/Nc1cccc(Cl)c1)c1ccc2oc(COCC3CC3)cc2c1`: 17.6 µM and 1.5 µM.
In the case of `O/N=C(/Nc1cccc(Cl)c1)c1ccc2occc2c1`, the results for the IC50 in assay [1] and in assay [2] were 1.5 µM and 0.69 µM, respectively.
